In patent US20250154188A1, “C-GLYCOSIDES AS ANTI-INFLAMMATORY AGENTS” (UNIVERSITY OF PITTSBURGH - OF THE COMMONWEALTH SYSTEM OF …, priority 2022, published 2025):

What was measured:
[1] = tested on: mice with NEC; test: Mouse NEC model, ileal inflammation marker mRNA (qRT-PCR); type: in vivo; settings: neonatal mice, oral gavage 10 mg per kg body weight per day during NEC induction; FIG. 3-7
From the text: Mouse NEC model. Experimental NEC was induced in a well validated and reproducible model in 7-day-old mice of either gender, which were randomly divided into control and test groups, by gavage feeding newborn mice with formula containing Similac Advance infant formula (Abbott Nutrition): Esbilac (PetAg) canine milk replacer, 2:1 ratio, which was supplemented with enteric bacteria made from a stock created from a specimen obtained from an infant with surgical NEC five times per day. Additionally, the mice were subjected to hypoxia (5% O2-95% N2) for 10 min in a hypoxia chamber (Billups-Rothenberg) twice daily for 4 days. The C34 analogues were administered by oral gavage during the induction of NEC at the dose of 10 mg per kg body weight per day. […]
RNA isolation, cDNA synthesis and qPCR. Total RNA was isolated using the RNeasy mini kit (Qiagen) and complementary DNA was synthesized from 0.5 μg RNA using QuantiTect Reverse Transcription kit (Qiagen) following the manufacturer's protocols. The mRNA quantification was performed on the Bio-Rad CFX96 Real-Time System (Bio-Rad) using iTaq™ universal SYBR® Green supermix (Bio-Rad) and Bio-Rad CFX Manager 3.1 software was used to collect data from qRT-PCR. […]
Statistical Analysis. Transcript levels for inflammatory biomarkers were assessed by performing a one-way ANOVA statistical analysis followed by multiple comparison. […]

[2] = tested on: mice with NEC; test: Mouse NEC model, H&E staining of ileal tissue sections; type: in vivo; settings: oral gavage 10 mg per kg body weight per day, FIG. 13
From the text: Mouse NEC model. Experimental NEC was induced in a well validated and reproducible model in 7-day-old mice of either gender, which were randomly divided into control and test groups, by gavage feeding newborn mice with formula containing Similac Advance infant formula (Abbott Nutrition): Esbilac (PetAg) canine milk replacer, 2:1 ratio, which was supplemented with enteric bacteria made from a stock created from a specimen obtained from an infant with surgical NEC five times per day. Additionally, the mice were subjected to hypoxia (5% O2-95% N2) for 10 min in a hypoxia chamber (Billups-Rothenberg) twice daily for 4 days. The C34 analogues were administered by oral gavage during the induction of NEC at the dose of 10 mg per kg body weight per day. Age-matched breast milk-fed mouse pups were used as non-NEC controls. The relative mRNA expression levels of Toll-like receptor 4 (Tlr4) (FIG. 3), interleukin 6 (Il6) (FIG. 4), interleukin 1 beta (Il1b) (FIG. 5), tumor necrosis factor (Tnf) (FIG. 6) and lipocalin 2 (Lcn2) (FIG. 7) were shown.
Hematoxylin and eosin (H&E) staining. […]

CC(C)CC1OC(COC(=O)CC(C)(C)C)C(OC(=O)CC(C)(C)C)C(OC(=O)CC(C)(C)C)C1OC(=O)CC(C)(C)C (centres unmarked) [Compound C281]
necrotizing enterocolitis inflammation markers Tlr4, Il6, Il1b, Tnf, Lcn2 (relative mRNA expression in ileum) [1]: robust response | tissue architecture of the intestinal lining (H&E) [2]: preserve the tissue architecture of the intestinal lining
